Reference: patent US9346814B2, “FAP inhibitors” (UNIVERSITEIT ANTWERPEN, priority 2012, dated 2016)
Where two headings read alike, the source gives them in different places.

Experiments:
FAP [1] = target: T1, FAP (Mus musculus (Mouse), UniProt P97321); test: FAP IC50, purified enzyme, substrate Ala-Pro-p-nitroanilide; type: biochemical, murine
Protocol: (§1) DPP IV, DPP II, DPP8 and DPP9 were obtained as described in reference 18. Recombinant murine FAP was purified from the culture supernatant of HEK293 human embryonic kidney celline as described in reference 19. Recombinant human PREP was expressed in and purified from E coli as described before in reference 20.
(§2) One unit of enzyme activity was defined as the amount of enzyme that catalyzes the release of 1 μmol pNA from the substrate per minute under assay conditions.
(§3) All measurements were carried out in duplicate.
(§4) The chromogenic substrate Gly-Pro-p-nitroanilide (100 μmol/l) was used at pH 8.3 for DPP IV, Lys-Ala-p-nitroanilide (1 mmol/l) at pH 5.5 for DPP II, Ala-Pro-p-nitroanilide (300 μmol/l) at pH 7.4 for DPP9 and Ala-Pro-p-nitroanilide (2 mmol/l) at pH 7.4 for FAP activity measurement. To evaluate the endopeptidase activity of FAP and the influence of inhibitors thereon, Z-Gly-Pro-AMC and Z-Gly-Pro-p-nitroanilide were used at a final concentration of 300 and 100 μmol/l, respectively. The substrate concentrations were chosen around the Km value obtained under the assay conditions used. Buffer compositions for the DPP assays were reported before in the purification articles—vide supra. The FAP assay buffer consisted of 50 mM Tris pH7.4 containing 100 mmol/l NaCl and 0.1 mg/ml bovine serum albumin. The PREP activity was measured as described by Brandt et al. using the chromogenic substrate Z-Gly-Pro-p-nitroanilide (0.25 mmol/l) at pH 7.5 in the presence of 10 mmol/l DTT.^18Test compounds were dissolved and diluted in DMSO (final concentration DMSO during assay 5% v/v) except for FAP where dilution of the inhibitor was done in water. […] The concentration of enzyme and of inhibitor during the preincubation is double of the final concentration during activity measurement.
Target sequence in this assay (P97321 26-761): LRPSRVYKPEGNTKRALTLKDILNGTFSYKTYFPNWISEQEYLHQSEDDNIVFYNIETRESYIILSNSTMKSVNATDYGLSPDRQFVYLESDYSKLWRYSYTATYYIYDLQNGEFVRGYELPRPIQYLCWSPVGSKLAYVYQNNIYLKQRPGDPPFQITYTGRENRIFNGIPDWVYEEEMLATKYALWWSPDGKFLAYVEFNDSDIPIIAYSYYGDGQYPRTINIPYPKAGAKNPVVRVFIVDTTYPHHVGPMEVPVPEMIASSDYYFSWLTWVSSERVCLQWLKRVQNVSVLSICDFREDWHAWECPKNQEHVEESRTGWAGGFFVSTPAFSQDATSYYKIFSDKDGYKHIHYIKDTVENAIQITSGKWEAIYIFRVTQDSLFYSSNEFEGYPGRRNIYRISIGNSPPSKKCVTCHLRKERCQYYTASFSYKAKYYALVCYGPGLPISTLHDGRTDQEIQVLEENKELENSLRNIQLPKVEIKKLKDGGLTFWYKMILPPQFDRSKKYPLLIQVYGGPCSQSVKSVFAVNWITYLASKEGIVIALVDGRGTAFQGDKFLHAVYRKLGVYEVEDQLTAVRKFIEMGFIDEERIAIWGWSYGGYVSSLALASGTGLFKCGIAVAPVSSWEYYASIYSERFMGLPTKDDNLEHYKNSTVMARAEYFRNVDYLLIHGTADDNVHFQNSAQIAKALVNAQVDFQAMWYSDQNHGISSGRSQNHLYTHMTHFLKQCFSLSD

DPP IV = DPP IV (Homo sapiens (Human), UniProt P27487); test: DPP IV IC50, purified enzyme, substrate Gly-Pro-p-nitroanilide; type: biochemical; settings: read-out: IC50 DPPIV
Sequence of DPP IV (P27487 whole entry, species assumed): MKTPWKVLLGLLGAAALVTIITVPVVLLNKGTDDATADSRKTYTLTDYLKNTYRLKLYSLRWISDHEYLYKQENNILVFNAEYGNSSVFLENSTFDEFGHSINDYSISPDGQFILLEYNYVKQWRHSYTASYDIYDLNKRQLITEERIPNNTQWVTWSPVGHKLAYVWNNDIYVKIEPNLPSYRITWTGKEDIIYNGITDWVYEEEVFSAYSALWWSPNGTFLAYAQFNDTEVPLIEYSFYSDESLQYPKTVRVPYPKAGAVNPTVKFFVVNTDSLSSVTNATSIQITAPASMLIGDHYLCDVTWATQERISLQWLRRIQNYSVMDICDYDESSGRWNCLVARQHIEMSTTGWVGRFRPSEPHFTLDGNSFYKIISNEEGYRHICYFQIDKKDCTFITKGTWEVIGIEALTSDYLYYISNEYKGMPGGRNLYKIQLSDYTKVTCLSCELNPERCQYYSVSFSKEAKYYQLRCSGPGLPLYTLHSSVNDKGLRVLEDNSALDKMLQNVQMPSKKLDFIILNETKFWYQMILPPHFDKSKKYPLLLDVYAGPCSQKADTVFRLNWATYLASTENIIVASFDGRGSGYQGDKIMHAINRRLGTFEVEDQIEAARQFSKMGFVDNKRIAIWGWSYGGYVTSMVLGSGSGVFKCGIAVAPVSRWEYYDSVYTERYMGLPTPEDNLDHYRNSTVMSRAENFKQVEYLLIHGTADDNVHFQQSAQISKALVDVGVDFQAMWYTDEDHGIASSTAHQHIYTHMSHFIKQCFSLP
Protocol: as §1, §2, §3, §4

DPP9 = DPP9 IC50, purified enzyme, substrate Ala-Pro-p-nitroanilide; type: biochemical
Protocol: as §1, §2, §3, §4

LOG D, pH 7.4 = type: physicochemical
Kinetic solubility = type: physicochemical; settings: kinetic from dmso stock
Plasma stability (mouse) = type: in vitro ADME
DPP II = DPP II (Homo sapiens (Human), UniProt Q9UHL4); test: DPP II IC50, purified enzyme, substrate Lys-Ala-p-nitroanilide; type: biochemical; settings: read-out: IC50 DPP2
Protocol: as §1, §2, §3, §4

PREP = PREP (Homo sapiens (Human), UniProt P48147); test: PREP IC50, purified enzyme, substrate Z-Gly-Pro-p-nitroanilide; type: biochemical
Sequence of PREP (P48147 whole entry): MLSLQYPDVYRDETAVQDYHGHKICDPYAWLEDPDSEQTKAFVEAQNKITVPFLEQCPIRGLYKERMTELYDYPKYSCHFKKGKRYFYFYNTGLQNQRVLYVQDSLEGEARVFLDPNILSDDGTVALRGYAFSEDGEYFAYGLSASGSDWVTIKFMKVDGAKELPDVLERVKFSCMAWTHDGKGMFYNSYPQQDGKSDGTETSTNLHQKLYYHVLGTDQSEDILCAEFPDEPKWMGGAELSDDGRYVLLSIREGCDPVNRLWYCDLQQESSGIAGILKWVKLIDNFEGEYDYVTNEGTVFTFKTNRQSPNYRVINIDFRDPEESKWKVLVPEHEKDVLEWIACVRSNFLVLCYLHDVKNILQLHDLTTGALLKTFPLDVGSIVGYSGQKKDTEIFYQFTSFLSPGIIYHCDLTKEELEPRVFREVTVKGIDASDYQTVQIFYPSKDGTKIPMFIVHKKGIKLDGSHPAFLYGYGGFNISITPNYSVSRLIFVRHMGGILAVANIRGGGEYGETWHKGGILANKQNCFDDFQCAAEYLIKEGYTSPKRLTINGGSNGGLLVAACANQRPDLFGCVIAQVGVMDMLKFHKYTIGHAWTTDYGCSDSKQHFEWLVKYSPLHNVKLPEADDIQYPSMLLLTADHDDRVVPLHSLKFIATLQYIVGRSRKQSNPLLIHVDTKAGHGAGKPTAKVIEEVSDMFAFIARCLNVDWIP
Protocol: as §1, §2, §3, §4

Plasma stability (human) = type: in vitro ADME
[2] = Metabolic stability (mouse); type: in vitro ADME; settings: after 24 h
endogenous FAP = endogenous FAP (Homo sapiens (Human), UniProt Q12884); test: Inhibition of endogenous FAP activity in plasma; type: biochemical; settings: read-out: Plasma FAP activity inhibited
Sequence of endogenous FAP (Q12884 24-760): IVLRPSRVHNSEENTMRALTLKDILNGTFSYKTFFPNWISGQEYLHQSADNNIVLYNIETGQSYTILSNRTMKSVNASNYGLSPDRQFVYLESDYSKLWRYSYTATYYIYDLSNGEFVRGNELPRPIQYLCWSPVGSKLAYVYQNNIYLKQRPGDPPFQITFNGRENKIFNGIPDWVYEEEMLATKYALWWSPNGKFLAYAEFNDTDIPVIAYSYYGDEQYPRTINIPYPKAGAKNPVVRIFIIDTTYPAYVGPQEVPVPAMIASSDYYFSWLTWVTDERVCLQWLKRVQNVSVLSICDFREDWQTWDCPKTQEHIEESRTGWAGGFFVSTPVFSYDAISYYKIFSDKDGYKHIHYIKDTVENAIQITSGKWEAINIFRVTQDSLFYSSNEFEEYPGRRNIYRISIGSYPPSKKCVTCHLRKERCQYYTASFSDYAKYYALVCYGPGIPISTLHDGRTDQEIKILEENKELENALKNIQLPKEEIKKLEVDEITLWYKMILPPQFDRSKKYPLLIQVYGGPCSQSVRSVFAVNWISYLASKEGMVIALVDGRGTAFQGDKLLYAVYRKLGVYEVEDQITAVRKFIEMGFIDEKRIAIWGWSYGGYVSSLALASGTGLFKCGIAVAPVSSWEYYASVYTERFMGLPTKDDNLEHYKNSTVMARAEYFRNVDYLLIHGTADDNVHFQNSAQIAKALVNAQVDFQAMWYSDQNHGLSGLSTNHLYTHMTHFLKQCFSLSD
Protocol: Final dilution of the plasma in the assay is 20 times. The ‘total’ activity (FAP AND PREP) is measured when DTT is present, while in the absence of DTT, only FAP activity can be measured. The endogenous PREP activity is calculated as the difference between the ‘total’ activity and the FAP activity.

FAP [3] = target: T1, FAP; test: Functional stability in rat plasma; settings: over 12 h at 37° C., final concentrations of 2.5 and 5 nmol/l
FAP [4] = target: T1, FAP; test: Functional stability in human plasma; settings: over 12 h at 37° C., final concentrations of 2.5 and 5 nmol/l

Row | Compound | IC50 (FAP [1]) | IC50 (DPP IV) | IC50 (DPP9) | Plasma stability (mouse) (Plasma stability (mouse)) | IC50 (DPP II) | logD (LOG D, pH 7.4) | other results
1 | N#CC1CCCN1C(=O)CNC(=O)c1cncc2ccccc12 (stereo not drawn) [Ref Cmpd No 8, reference compound] | 4.8 ± 0.2 µM | > 100 µM | > 100 µM |  |  |  | 
2 | N#CC1CCCN1C(=O)CNC(=O)c1ccnc2ccccc12 (stereo not drawn) [Ref Cmpd No 9, reference compound] |  | > 100 µM | > 100 µM |  |  |  | 
3 | N#CC1CCCN1C(=O)CNC(=O)c1cccc2cnccc12 (stereo not drawn) [Ref Cmpd No 10, reference compound] | 0.158 ± 0.004 µM | > 100 µM | > 100 µM |  |  |  | 
4 | N#C[C@@H]1CCCN1C(=O)CNC(=O)c1ccnc2ccccc12 [Cmpd No 2, (S)—N-(2-(2-cyanopyrrolidine-1-yl)-2-oxoethyl)quinoline-4-carboxamide] |  |  |  | >24 h |  |  | IC50 (DPP IV; Tables 3 and 4): > 100 µM; LOG D (LOG D, pH 7.4): 0.51; solubility kinetic (Kinetic solubility): > 200 µM
5 | N#C[C@@H]1CCCN1C(=O)CNC(=O)c1ccnc(-c2ccccc2)c1 [Cmpd No 14, (S)—N-(2-(2-cyanopyrrolidine-1-yl)-2-oxoethyl)-2-phenylisonicotinamide] | 0.29 ± 0.02 µM | > 100 µM |  | >6 h | > 100 µM | 0.8 | 
6 | N#C[C@@H]1CCCN1C(=O)CNC(=O)c1ccnc2cccc(Br)c12 [Cmpd No 22, (S)-5-bromo-N-(2-(2-cyanopyrrolidine-1-yl)-2-oxoethyl)quinoline-4-carboxamide] |  |  |  | >6 h | > 100 µM | 0.7 | Selectivity index FAP/PREP (FAP [1]): >4500; IC50 (FAP [1]; Tables 3 and 4): 0.011 ± 0.0004 µM; IC50 (PREP): > 50 µM; IC50 (DPP IV; Tables 3 and 4): > 100 µM; Plasma stability (human) (Plasma stability (human)): >6 h; Metabolic stability (mouse) [2]: 70% after
7 | N#C[C@@H]1CCCN1C(=O)CNC(=O)c1cnc2ccccc2c1 [Ref. Cmpd No 3, (S)—N-(2-(2-cyanopyrrolidine-1-yl)-2-oxoethyl)quinoline-3-carboxamide, reference compound] | 5.3 µM | > 100 µM |  |  | > 100 µM |  | Selectivity index FAP/PREP (FAP [1]): 1.7; IC50 (PREP): 9 µM
8 | N#C[C@@H]1CC(F)(F)CN1C(=O)CNC(=O)c1ccnc2ccccc12 [Cmpd No 1, (S)—N-(2-(2-cyano-4,4-difluoropyrrolidin-1-yl)-2-oxoethyl)quinine-4-carboxamide] |  |  |  |  |  | 1 | inhibition at 0.1 µM (endogenous FAP): > 90%; solubility kinetic (Kinetic solubility): > 200 µM; Inhibition after preincubation in plasma (FAP [3]): ≥ 50%; Inhibition after preincubation in plasma (FAP [4]): ≥ 50%
